# Results reported in patent US12357579B2, “Capsule for treating ulcerative colitis” (KEIO UNIVERSITY, priority 2018, dated 2025).
# How the values were obtained:
# [1] = system: mouse model of colitis; settings: cited from earlier work
# [2] = system: colitis model mice (2.0% DSS, C57BL/6J); assay: DSS-induced colitis model mice: colitis-suppressing action (body weight, DAI score, colon length); format: in vivo; settings: oral, 7 days; for effect on colitis (overall): indigo amount 0.5 mg/day (equivalent to 25 mg/kg/day)
# Protocol: As mice used in an animal test, C57BL/6J was started to use after preliminary breeding for 3 days after purchase. First, a 2.0% solution of DSS (dextran sulfate sodium salt, molecular weight 36,000 to 44,000) was given to mice to cause colitis to prepare colitis model mice. The colitis model mice were administered with only sterilized water to obtain control mice. It should be noted that, in order to maintain the colitis state of the mice for 7 days, the 2.0% DDS (dextran sulfate sodium salt) solution was orally administered at the same time as the administration of the sterile water. Five capsules (equivalent to indigo amount of 0.5 mg) and 15 capsules (equivalent to indigo amount of 1.5 mg) both of which were the indigo-containing capsules A were each orally administered to 5 specimens of colitis mice for 7 days. It should be noted that, in order to maintain the colitis state of the mice for 7 days, the 2.0% DDS (dextran sulfate sodium salt) solution was orally administered at the same time when the oral administration of the capsules A. Colitis-suppressing action of indigo was evaluated by a decrease in the endpoints such as body weight (BW), disease activity index (DAI) score (DAI score: a total score (0 to 12) of the number of defecation, bloody stool, mucosal findings, and general endpoints scored 0 to 3 on a 4-point scale), and colon length. […] FIG. 3 is a graph representing results of disease activity index score (DAI score). It should be noted that the DAI score refers to an evaluation index described in the literature “Sutherland L R, Martin F, Greer S, et al: 5-Aminosalicylic acid enema in the treatment of distal colitis, proctosigmoiditis, and proctitis. Gastroenterology 92: 1894-1898, 1987”. FIG. 4 is a graph representing results of measuring colon length. Since the colon length is shortened by causing colitis, the colon length of each mouse group was measured as another index for the evaluation of colitis, and the average value thereof was represented by a histogram.
# [3] = indigo amount 0.5 mg/day, vs control group
smiles,measurement,setting,value
"O=C1/C(=C2\Nc3ccccc3C2=O)Nc2ccccc21 [indigo powder, indigo]",effect in colitis model mice,[1]; low dose 60 mg/kg/day of powder,effective
same,therapeutic effect in mouse model of colitis,[1]; powder administration,had a therapeutic effect
same,effect on colitis (overall),[2],no effect of indigo was observed
same,effect on colitis (overall),[2]; listed as powder,no effect
same,changes in body weight (BW),[2]; [3],decreasing the body weight was also observed as compared with the control group
same,colon length,[2]; [3],the same as that of the control group
